Laboratory results as given in patent US8026236B2, “6-phenyl-1H-imidazo[4,5-c]pyridine-4-carbonitrile derivatives” (N.V. Organon, priority 2009, dated 2011).

Molecular target: recombinant human Cathepsin S (Homo sapiens, UniProt P25774)
Test: Cathepsin S assay procedure (inhibition of recombinant human Cathepsin S, fluorogenic substrate Z-Val-Val-Arg-AMC)
Format: biochemical
Settings: pH5.5, 20 minutes, read-out: pIC50 (negative logarithm of the IC50 concentration) for inhibition of human cathepsin S (converted)
Protocol: To a 384 well microtitre plate is added 10 μl of a 1000 solution of test compound in assay buffer (100 mM sodium acetate pH5.5, 5 mM EDTA, 5 mM dithiothreitol) with 10% dimethylsulfoxide (DMSO), plus 200 of 2500 solution of the substrate Z-Val-Val-Arg-AMC (7-amido-coumarine derivative of the tripeptide N-benzyloxy-carbonyl-Val-Val-Arg-OH) in assay buffer and 45 μl of assay buffer. 25 μl of a 2 mg/l solution of activated recombinant human cathepsin S, in assay buffer, is then added to the well, yielding a final inhibitor concentration of 10 μM. Enzyme activity is determined by measuring the fluorescence of the liberated aminomethylcoumarin at […] using 390 nm excitation, at 20 minutes. Percentage enzyme activity is calculated by comparison of this activity to that of a solution containing no inhibitor. Compounds are subsequently subjected to a dose response curve analysis in order to determine IC50 values for active compounds (where IC50 is the concentration of test compound causing 50% inhibition of the enzymatic activity). Compounds of the invention typically have a pIC50 (negative logarithm of the IC50 concentration) for inhibition of human cathepsin S of more than 6. Most compounds of the invention have a pIC50 of more than 7, such as exemplified by the compounds of examples 1a, 1b, 2a, 7d, 12a, 14a, 14b, 14c, 14d, 14e, 14f, 14g, 14h, 14i, 17, 18.

recombinant human Cathepsin S, sequence (P25774 115-331): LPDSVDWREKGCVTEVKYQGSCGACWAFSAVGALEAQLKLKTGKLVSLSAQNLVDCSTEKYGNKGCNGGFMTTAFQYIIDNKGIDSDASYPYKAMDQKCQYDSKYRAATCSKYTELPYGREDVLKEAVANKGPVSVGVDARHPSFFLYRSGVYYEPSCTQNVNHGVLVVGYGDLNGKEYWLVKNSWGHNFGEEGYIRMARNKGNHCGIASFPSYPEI

CC(=O)Nc1cccc(COc2ccc(-c3cc4c(ncn4C)c(C#N)n3)cc2C(F)(F)F)c1 [Example 17]
IC50: < 100 nM
